Reference: PubChem BioAssay (NCI)
Values joined by “and” are separate entries in the source; they are usually repeats but may differ in a detail not shown here. Equal values may be shown once.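 Results reflect a 48-hour exposure of cells in 96-well plates to compound at five concentrations. At the GI50, growth is halved. TGI denotes the concentration required for complete inhibition of growth.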 Where a SMILES comes first, the peptide text is derived from it. The star is where a group is joined. Boc = CC(C)(C)OC(=O)*; OSu = O=C1CCC(=O)N1O*

Assays:
Experiment in all cases: DTP human tumour cell line panel, 48 h
[1] = tested on: SW-620 colon
[2] = tested on: CAKI-1 renal
[3] = tested on: NCI-H226 lung
[4] = tested on: 786-0 renal
[5] = tested on: RPMI-8226 leukemia
[6] = tested on: OVCAR-8 ovarian
[7] = tested on: M14 melanoma
[8] = tested on: HCC-2998 colon
[9] = tested on: MDA-MB-435
[10] = tested on: OVCAR-3 ovarian
[11] = tested on: NCI-H522 lung
[12] = tested on: T-47D breast

SMILES	TGI [1] [µM]	TGI [2] [µM]	TGI [3] [µM]	TGI [4] [µM]	TGI [5] [µM]	TGI [6] [µM]	TGI [7] [µM]	TGI [8] [µM]	TGI [9] [µM]	TGI [10] [µM]	TGI [11] [µM]	TGI [12] [µM]	GI50 [11]
CC1(C)CC2(C)CC1CC2O (stereo not drawn)	> 100	> 100	> 100	> 100	> 100	> 100	> 100	> 100	> 100	> 100	–	–	–
Nc1nc2ncc(SCc3ccc(C(=O)NC(CCC(=O)O)C(=O)O)cc3)cc2c(=O)[nH]1 (stereo not drawn)	> 100	> 100	> 100	> 100	> 100	> 100	> 100	> 100	> 100	> 100	> 100	–	–
O=C1CC2(C[C@@H]3CCCCCCCCC[C@@H](C3)C2)N1 (stereo partly drawn)	33.8	25.4	30.8	30.4	51.1	33.5	28.8	31.9	–	–	33.1	–	–
N#CCCN(c1ccc(C=Nc2cccc([N+](=O)[O-])c2)cc1)S(=O)(=O)c1ccccc1	> 100	> 100	> 100	> 100	> 100	> 100	> 100	> 100	–	> 100	> 100	–	–
CCOC(=O)c1c(NC(=O)c2ccccc2)sc2c1CCCC2	> 100	> 100	> 100	> 100	> 100	> 100	> 100	–	> 100	> 100	–	> 100	–
COc1ccc2nc(-c3ccc(OCc4ccccc4)cc3)ccc2c1	> 100	–	> 100	> 100	> 100	> 100	> 100	> 100	–	> 100	> 100	–	–
C/C(=N\NC(=S)NC(C)C)c1nc2ncccc2[nH]1	> 100	> 89.1	51.3	> 100	> 100	52.7	> 100	> 100	–	> 100	> 76.3	> 95.1	–
CCOC(=O)CCC(NC(=O)c1ccc(OCc2nc3cc(C(F)(F)F)ccc3nc2-c2ccccc2)cc1)C(=O)OCC (stereo not drawn)	> 100	> 100	> 100	> 100	> 100	> 100	> 100	–	> 100	> 100	> 100	> 100	–
CC1C(c2cc(C(C)(C)C)c(O)c(C(C)(C)C)c2)c2cc3c(cc2OC1N1CCOCC1)OCO3 (stereo not drawn)	> 100	–	–	27.1	> 100	60	59.3	33.4	68.2	35	> 100	> 100	–
COC1O[C@H]2CCN(C(=O)OCc3ccccc3)[C@H]2[C@H]1OCc1ccccc1 (stereo partly drawn)	> 100	> 100	> 100	> 100	> 100	> 100	> 100	> 100	–	> 100	> 100	–	–
CC12CC(c3ccccc3O1)C(C(=O)Nc1ccc(F)cc1)C(=O)N2 (stereo not drawn)	> 100	> 100	–	> 100	> 100	> 100	> 100	> 100	> 100	> 100	> 100	> 100	–
Cc1c(Cl)ccc2c(=O)c3cccc(CC(=O)O)c3oc12	> 100	> 100	> 100	> 100	> 100	> 100	> 100	> 100	> 100	> 100	> 100	–	–
O=C1O[C@@H](c2ccccc2)C[C@@H]1CN1CCOCC1	> 100	> 100	> 100	> 100	> 100	> 100	> 100	> 100	–	> 100	> 100	–	–
O=C1CCCN(c2ccccc2)N1	> 100	> 100	> 100	> 100	> 100	> 100	> 100	> 100	–	> 100	> 100	–	–
O=C1CC(O)c2c1csc2Br (stereo not drawn)	37.2	> 100	–	51.1	74.5	62.4	35.5	44	41.1	64.4	30.4	> 100	–
Cc1c(Cl)cccc1NC(=O)C(=O)C1C(=O)CC(C)(C)CC1=O	> 100	> 100	> 100	> 100	> 100	> 100	> 100	> 100	–	> 100	> 100	–	–
c1ccc(C[P+]2(c3ccccc3)c3ccccc3-c3ccccc32)cc1	> 100	> 100	> 100	> 100	> 100	> 100	> 100	> 100	> 100	> 100	> 100	–	–
O=C(Cc1nc2ccc(C(=O)c3ccccc3)cc2[nH]c1=O)C(=O)Nc1ccc(Br)cc1	> 100	> 100	> 100	> 100	> 100	> 100	> 100	–	> 100	> 100	> 100	> 100	–
CCOC(=O)c1cc(=C2\CCN(CC(C)CC)C2=S)/c(=C(/O)CC)[nH]1 (stereo not drawn)	25.9	26.4	45.3	30.5	25.4	56.6	–	–	29.6	–	36.4	30.9	–
CC(C)C(Sc1nc(-c2ccccc2)c(-c2ccccc2)[nH]1)C(=O)NNC(=S)Nc1ccccc1 (stereo not drawn)	33.1	–	37.2	35.8	39.6	> 100	30.6	17.6	–	29	21.5	–	–
C[N+](C)(C)CC(=O)N/N=c1\cc(C(=O)Nc2ccc(N=O)cc2C#N)oc2cc(O)ccc12	> 100	> 100	> 100	> 100	–	> 100	> 100	> 100	–	> 100	> 100	–	–

SMILES	TGI [1] [µM]	TGI [2] [µM]	TGI [3] [µM]	TGI [4] [µM]	TGI [5] [µM]	TGI [6] [µM]	TGI [7] [µM]	TGI [8] [µM]	TGI [9] [µM]	TGI [10] [µM]	TGI [11] [µM]	TGI [12] [µM]	GI50 [11]
COC1(C)CC2N(C(=O)c3ccccc3)N=C(c3ccccc3)CC2(C)O1 (stereo not drawn)	> 100	> 100	> 100	> 100	> 100	> 100	> 100	> 100	–	> 100	> 100	–	–
CCCCN(CC)c1nc(C)nc2c1c(C)c(C)n2-c1c(C)cc(C)cc1C	33.4	30.2	30.1	30.5	30.1	28.5	35.6	–	33.3	26.6	25.7	25.4	–
CCCCc1c(O)nc(Nc2nc3ccccc3[nH]2)[nH]c1=O	> 100	> 100	> 100	> 100	> 100	> 100	> 100	–	> 100	> 100	> 100	> 100	–
COC(=O)c1cc(CC(C)C)c2c(c1)[nH]c1ccccc12	> 100	> 100	> 100	> 100	–	> 100	> 100	> 100	–	> 100	> 100	–	–
CO[C@@H](C(=O)OC1C=CC2(CC1)C(=O)N(C)c1ccccc12)c1ccccc1 (stereo partly drawn)	> 100	> 100	–	> 100	> 100	> 100	> 100	> 100	> 100	> 100	–	> 100	–
N#C/C(=C\NC(=S)Nc1ccc(S(=O)(=O)Nc2ccccn2)cc1)C(N)=O	> 100	> 100	> 100	> 100	> 100	> 100	> 100	–	> 100	> 100	> 100	–	–
O=C1CC(c2ccco2)C2(C(=O)NC(=O)NC2=O)C(c2ccco2)C1 (stereo not drawn)	> 75	> 75	–	> 75	> 75	> 75	> 75	> 75	> 75	> 75	> 75	> 75	–
COc1ccc(/C(=C/n2ccnc2)C(=O)c2ccc(OC)c(OC)c2)cc1	> 100	> 100	> 100	> 100	> 100	> 100	> 100	> 100	–	> 100	> 100	–	–
Cc1cc(=O)cc2sc3c(C)cccc3nc1-2	17.7	83	–	32.2	97	> 100	52	> 100	–	52	> 100	–	–
COC(=O)C(C#N)=C1c2ccccc2Oc2ccccc21	> 100	> 100	> 100	> 100	49.3	> 100	> 100	> 100	–	73.1	77.3	–	–
Cc1ccccc1C1OC1C(=O)c1ccccc1N (stereo not drawn)	> 100	> 100	> 100	> 100	> 100	> 100	> 100	> 100	43.2	–	–	–	–
O=C1NC(c2ccc(O)cc2)C2CCC1C2 (stereo not drawn)	> 100	> 100	> 100	> 100	> 100	> 100	> 100	> 100	–	> 100	> 100	–	–
CCCN=C1CC(C)Nc2ccccc2N1 (stereo not drawn)	> 100	> 100	> 100	> 100	> 100	> 100	> 100	–	> 100	> 100	> 100	–	–
O=C(/C=C/c1ccccc1)/C=C/c1ccccc1O	23.8	64.6	58.1	32.4	43.8	30.6	50.7	26.8	–	0.842	33.3	–	–
N#Cc1c(N)[nH]c(=S)c(C#N)c1-c1cccc(Cl)c1	> 100	> 100	> 100	34.2	94.5	> 100	> 100	35.6	49.7	> 100	56.7	–	–
COc1ccc(C2C(Cl)C(=O)N2NC(=O)c2ccc(NC(C)=O)cc2)cc1 (stereo not drawn)	> 100	> 100	> 100	> 100	–	> 100	> 100	–	–	> 100	> 100	–	–
COc1ccc(-c2c(C#N)c(N)n(C3OC(CO)C(O)C(O)C3O)c(=S)c2C#N)cc1 (stereo not drawn)	> 100	> 100	> 100	> 100	> 100	> 100	> 100	> 100	–	> 100	> 100	> 100	34.4 µM and 13.2 µM
Cc1c(S(=O)(=O)c2ccccc2)c(N)n(Cc2ccccc2)c1C	> 100	> 100	> 100	> 100	> 100	> 100	> 100	> 100	> 100	> 100	> 100	–	–
Cc1cccc(N2C(=O)C3ON(C(C(N)=O)c4ccccc4)C(c4c5ccccc5c(Cl)c5ccccc45)C3C2=O)c1C (stereo not drawn)	> 50	27.3	14.9	20.5	–	25.1	16.1	–	14.6	17.5	> 50	32.1	–
CC(C)(C)OC(=O)NC(Cc1ccc(O)cc1)C(=O)NC(CCCCN)C(=O)NC(Cc1ccc(O)cc1)C(=O)NC(CCCCN)C(=O)ON1C(=O)CCC1=O (stereo not drawn) (Boc-YKYK-OSu; configuration not given here)	> 100	–	> 100	> 100	> 100	> 100	> 100	> 100	–	–	–	> 100	–
